In US11440899B2, “Pyrimidine TBK/IKKe inhibitor compounds and uses thereof” (Merck Patent GmbH, priority 2017, dated 2022):
Where a name gives a salt, the structure may show the parent alone.

What was measured:
[1] = target: TBK1 (Homo sapiens (Human), UniProt Q9UHD2); assay: TBK Biochemical Assay
Experimental: Example 106: TBK Biochemical Assay Test compounds were transferred into Labcyte polypropylene 384 well plates ([…]-25) and diluted to 3 mM using DMSO. 3 mM test compounds were dispensed using Labcyte ECHO dose response module into Greiner 784075 plates (columns 3-12 and 13-22, 10 point 1:4) so that high concentration was 30 uM final. 100 uM of a reference compound (1 uM final high concentration). Backfilling was performed if necessary so that all wells contain 1% DMSO final: add 75 nl DMSO/well into columns 1, 2 and 24 using Labcyte Echo. add 75 nl 1.0 mM staurosporine/well into column 23 using Labcyte Echo (10 uM final) add 4.5 ul enzyme/well using multidrop dispenser add 3 ul substrate/well using multidrop dispenser incubate at 25° C. in Heidolph incubator for 90 min. add 7.5 ul 2× stop buffer using multidrop dispenser read on labchip ez reader II using TBK1.job Raw data files were opened in the Caliper LabChip Reviewer program (Version 3.0.265.0 SP2) and peak assignments were adjusted to reflect “substrate first” with the software's post-run analysis options. A spline-fit baseline was applied using the software's analysis algorithm.

[2] = target: IKKe (Homo sapiens (Human), UniProt Q14164); assay: IKKe Biochemical Assay
Experimental: IKKe Biochemical Assay Test compounds were transferred into Labcyte polypropylene 384 well plates ([…]-25) and diluted to 3 mM using DMSO. 3 mM test compounds were dispensed using Labcyte ECHO dose response module into Greiner 784075 plates (columns 3-12 and 13-22, 10 point 1:4) so that high concentration was 30 uM final. 100 uM of a reference compound (1 uM final high concentration). Backfilling was performed if necessary so that all wells contain 1% DMSO final: add 75 nl DMSO/well into columns 1, 2 and 24 using Labcyte Echo. add 75 nl 1.0 mM staurosporine/well into column 23 using Labcyte Echo (10 uM final) add 4.5 ul enzyme/well using multidrop dispenser add 3 ul substrate/well using multidrop dispenser incubate at 25° C. for 90 min. add 7.5 ul 2× stop buffer read on labchip ez reader II using IKKε. job Raw data files were opened in the Caliper LabChip Reviewer program (Version 3.0.265.0 SP2) and peak assignments were adjusted to reflect “substrate first” with the software's post-run analysis options. A spline-fit baseline was applied using the software's analysis algorithm.

TBK1, sequence (Q9UHD2 whole entry, species assumed): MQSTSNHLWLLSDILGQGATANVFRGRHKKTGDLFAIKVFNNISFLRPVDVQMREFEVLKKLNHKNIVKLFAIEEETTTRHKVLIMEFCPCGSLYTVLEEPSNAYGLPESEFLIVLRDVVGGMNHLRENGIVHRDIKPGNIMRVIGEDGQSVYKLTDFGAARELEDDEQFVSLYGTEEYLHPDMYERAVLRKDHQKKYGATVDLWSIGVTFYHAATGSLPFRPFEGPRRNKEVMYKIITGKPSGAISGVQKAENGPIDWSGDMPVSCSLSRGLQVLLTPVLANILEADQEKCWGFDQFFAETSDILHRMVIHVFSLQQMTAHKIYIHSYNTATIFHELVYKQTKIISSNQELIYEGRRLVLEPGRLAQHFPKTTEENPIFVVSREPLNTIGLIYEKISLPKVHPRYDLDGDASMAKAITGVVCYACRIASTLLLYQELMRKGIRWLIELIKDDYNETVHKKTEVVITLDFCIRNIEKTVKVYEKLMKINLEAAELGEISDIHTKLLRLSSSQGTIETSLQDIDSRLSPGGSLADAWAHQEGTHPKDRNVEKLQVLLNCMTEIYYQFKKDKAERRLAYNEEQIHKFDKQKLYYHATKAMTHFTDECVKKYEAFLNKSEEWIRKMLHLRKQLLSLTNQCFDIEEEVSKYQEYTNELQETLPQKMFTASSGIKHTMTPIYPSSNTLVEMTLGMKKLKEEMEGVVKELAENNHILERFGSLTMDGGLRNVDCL
IKKe, sequence (Q14164 whole entry, species assumed): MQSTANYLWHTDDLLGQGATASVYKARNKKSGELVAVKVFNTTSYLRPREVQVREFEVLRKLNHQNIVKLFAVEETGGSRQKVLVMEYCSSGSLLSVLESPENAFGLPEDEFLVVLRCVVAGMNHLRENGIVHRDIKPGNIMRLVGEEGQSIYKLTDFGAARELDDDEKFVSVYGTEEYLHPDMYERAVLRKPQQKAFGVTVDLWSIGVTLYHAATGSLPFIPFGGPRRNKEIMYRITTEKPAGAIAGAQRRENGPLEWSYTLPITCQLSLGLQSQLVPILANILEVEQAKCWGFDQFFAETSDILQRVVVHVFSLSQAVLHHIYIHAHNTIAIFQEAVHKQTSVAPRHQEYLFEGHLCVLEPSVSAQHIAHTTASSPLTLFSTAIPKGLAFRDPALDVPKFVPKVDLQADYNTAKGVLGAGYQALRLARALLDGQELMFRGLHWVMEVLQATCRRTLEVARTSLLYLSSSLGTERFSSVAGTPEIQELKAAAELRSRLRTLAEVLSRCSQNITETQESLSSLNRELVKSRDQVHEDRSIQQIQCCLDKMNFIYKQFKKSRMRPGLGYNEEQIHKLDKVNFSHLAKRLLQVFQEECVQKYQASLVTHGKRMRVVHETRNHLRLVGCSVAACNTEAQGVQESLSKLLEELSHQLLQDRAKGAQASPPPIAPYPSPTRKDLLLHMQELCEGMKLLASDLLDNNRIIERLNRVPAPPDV

IC50 [1]	IC50 [2]	SMILES
100 to 1000 nM	100 to 1000 nM	COc1nc(Nc2cc(-c3ccc(O[C@H]4CCNC[C@H]4F)c(C#N)c3)ncn2)ccc1C(=O)N(C)C [Example 46, 6-[[6-(3-cyano-4-[[(3R,4S)-3-fluoropiperidin-4-yl]oxy]phenyl)pyrimidin-4-yl]amino]-2-methoxy-N,N-dimethylpyridine-3-carboxamide]
< 100 nM	< 100 nM	COc1nc(Nc2cc(-c3ccc(O[C@H]4CCN(C(=O)CO)C[C@H]4F)c(C#N)c3)ncn2)ccc1C(=O)N(C)C [Example 47, 6-[[6-(3-cyano-4-[[(3R,4S)-3-fluoro-1-(2-hydroxyacetyl)piperidin-4-yl]oxy]phenyl)pyrimidin-4-yl]amino]-2-methoxy-N,N-dimethylpyridine-3-carboxamide]
< 100 nM	< 100 nM	COc1nc(Nc2cc(-c3ccc(OC4CCN(C)CC4(F)F)c(C#N)c3)ncn2)ccc1C(=O)N(C)C (stereo not drawn) [Example 48, 6-[(6-[3-cyano-4-[(3,3-difluoro-1-methylpiperidin-4-yl)oxy]phenyl]pyrimidin-4-yl)amino]-2-methoxy-N,N-dimethylpyridine-3-carboxamide]
< 100 nM	< 100 nM	COc1nc(Nc2cc(-c3ccc(OC4CCN(C(=O)CO)CC4(F)F)c(C#N)c3)ncn2)ccc1C(=O)N(C)C (stereo not drawn) [Example 49, 6-[[6-(3-cyano-4-[[3,3-difluoro-1-(2-hydroxyacetyl)piperidin-4-yl]oxy]phenyl)pyrimidin-4-yl]amino]-2-methoxy-N,N-dimethylpyridine-3-carboxamide]
< 100 nM	< 100 nM	COc1nc(Nc2cc(-c3ccc(OC4CCNCC4)c(C#N)c3)ncn2)ccc1N1CCN(C)CC1 [Example 50, 5-(6-[[6-methoxy-5-(4-methylpiperazin-1-yl)pyridin-2-yl]amino]pyrimidin-4-yl)-2-(piperidin-4-yloxy)benzonitrile]
100 to 1000 nM	100 to 1000 nM	COc1nc(Nc2cc(-c3ccc(OC4CCN(C)CC4)c(C#N)c3)ncn2)ccc1N1CCN(C)CC1 [Example 51, 5-(6-[[6-methoxy-5-(4-methylpiperazin-1-yl)pyridin-2-yl]amino]pyrimidin-4-yl)-2-[(1-methylpiperidin-4-yl)oxy]benzonitrile]
< 100 nM	< 100 nM	COc1nc(Nc2cc(-c3ccc(OC4CCN(C(=O)CO)CC4)c(C#N)c3)ncn2)ccc1N1CCN(C)CC1 [Example 52, 2-[[1-(2-hydroxyacetyl)piperidin-4-yl]oxy]-5-(6-[[6-methoxy-5-(4-methylpiperazin-1-yl)pyridin-2-yl]amino]pyrimidin-4-yl)benzonitrile]
< 100 nM	< 100 nM	COc1nc(Nc2cc(-c3ccc(OC4CCN(C(=O)C(C)O)CC4)c(C#N)c3)ncn2)ccc1N1CCN(C)CC1 (stereo not drawn) [Example 53, 2-[[1-(2-hydroxypropanoyl)piperidin-4-yl]oxy]-5-(6-[[6-methoxy-5-(4-methylpiperazin-1-yl)pyridin-2-yl]amino]pyrimidin-4-yl)benzonitrile]
< 100 nM	< 100 nM	COc1nc(Nc2cc(-c3ccc(OC4CCN(C(=O)c5cocn5)CC4)c(C#N)c3)ncn2)ccc1N1CCN(C)CC1 [Example 54, 5-(6-[[6-methoxy-5-(4-methylpiperazin-1-yl)pyridin-2-yl]amino]pyrimidin-4-yl)-2-([1-[(1,3-oxazol-4-yl)carbonyl]piperidin-4-yl]oxy)benzonitrile]
< 100 nM	< 100 nM	COc1nc(Nc2cc(-c3ccc(OC4CCN(C(=O)c5n[nH]c(C)n5)CC4)c(C#N)c3)ncn2)ccc1N1CCN(C)CC1 [Example 55, 5-(6-[[6-methoxy-5-(4-methylpiperazin-1-yl)pyridin-2-yl]amino]pyrimidin-4-yl)-2-([1-[(5-methyl-1H-1,2,4-triazol-3-yl)carbonyl]piperidin-4-yl]oxy)benzonitrile]
< 100 nM	< 100 nM	COc1nc(Nc2cc(-c3ccc(OC4CCN(C(=O)c5cnco5)CC4)c(C#N)c3)ncn2)ccc1N1CCN(C)CC1 [Example 56, 5-(6-[[6-methoxy-5-(4-methylpiperazin-1-yl)pyridin-2-yl]amino]pyrimidin-4-yl)-2-([1-[(1,3-oxazol-5-yl)carbonyl]piperidin-4-yl]oxy)benzonitrile]
< 100 nM	< 100 nM	COc1nc(Nc2cc(-c3ccc(O[C@H]4CCN(C(=O)c5cnn[nH]5)C[C@H]4F)c(C#N)c3)ncn2)ccc1N1CCN(C)CC1 [Example 57, 2-[[(3R,4S)-3-fluoro-1-[(1H-1,2,3-triazol-5-yl)carbonyl]piperidin-4-yl]oxy]-5-(6-[[6-methoxy-5-(4-methylpiperazin-1-yl)pyridin-2-yl]amino]pyrimidin-4-yl)benzonitrile]
< 100 nM	< 100 nM	COc1nc(Nc2cc(-c3ccc(OC4CCN(C)CC4(F)F)c(C#N)c3)ncn2)ccc1N1CCN(C)CC1 (stereo not drawn) [Example 58, 2-[(3,3-difluoro-1-methylpiperidin-4-yl)oxy]-5-(6-[[6-methoxy-5-(4-methylpiperazin-1-yl)pyridin-2-yl]amino]pyrimidin-4-yl)benzonitrile]
< 100 nM	< 100 nM	COc1nc(Nc2cc(-c3ccc(OC4CCN(C(=O)CO)CC4(F)F)c(C#N)c3)ncn2)ccc1N1CCN(C)CC1 (stereo not drawn) [Example 59, 2-[[3,3-difluoro-1-(2-hydroxyacetyl)piperidin-4-yl]oxy]-5-(6-[[6-methoxy-5-(4-methylpiperazin-1-yl)pyridin-2-yl]amino]pyrimidin-4-yl)benzonitrile]
< 100 nM	< 100 nM	COc1nc(Nc2cc(-c3ccc(O[C@H]4CCN(C(=O)CO)CC4(F)F)c(C#N)c3)ncn2)ccc1N1CCN(C)CC1 [Example 60, 2-[[(4S)-3,3-difluoro-1-(2-hydroxyacetyl)piperidin-4-yl]oxy]-5-(6-[[6-methoxy-5-(4-methylpiperazin-1-yl)pyridin-2-yl]amino]pyrimidin-4-yl)benzonitrile]
< 100 nM	< 100 nM	COc1nc(Nc2cc(-c3ccc(OC4CCN(C(=O)[C@H](C)O)CC4(F)F)c(C#N)c3)ncn2)ccc1N1CCN(C)C[C@@H]1C (stereo partly drawn) [Example 62, 2-([3,3-difluoro-1-[(2S)-2-hydroxypropanoyl]piperidin-4-yl]oxy)-5-[6-([5-[(2S)-2,4-dimethylpiperazin-1-yl]-6-methoxypyridin-2-yl]amino)pyrimidin-4-yl]benzonitrile hydrochloride]
< 100 nM	< 100 nM	COc1nc(Nc2cc(-c3ccc(OC4CCN(C(=O)[C@@H](C)O)CC4(F)F)c(C#N)c3)ncn2)ccc1N1CCN(C)C[C@@H]1C (stereo partly drawn) [Example 63, 2-([3,3-difluoro-1-[(2R)-2-hydroxypropanoyl]piperidin-4-yl]oxy)-5-[6-([5-[(2S)-2,4-dimethylpiperazin-1-yl]-6-methoxypyridin-2-yl]amino)pyrimidin-4-yl]benzonitrile hydrochloride]
< 100 nM	< 100 nM	COc1nc(Nc2cc(-c3ccc(OC4CCNCC4(F)F)c(C#N)c3)ncn2)ccc1N1CCN(C)C[C@H]1C (stereo partly drawn) [Example 64, 2-[(3,3-difluoropiperidin-4-yl)oxy]-5-[6-({5-[(2R)-2,4-dimethylpiperazin-1-yl]-6-methoxypyridin-2-yl}amino)pyrimidin-4-yl]benzonitrile]
< 100 nM	< 100 nM	COc1nc(Nc2cc(-c3ccc(OC4CCN(C(=O)[C@H](C)O)CC4(F)F)c(C#N)c3)ncn2)ccc1N1CCN(C)C[C@H]1C (stereo partly drawn) [Example 65, 2-([3,3-difluoro-1-[(2S)-2-hydroxypropanoyl]piperidin-4-yl]oxy)-5-[6-([5-[(2R)-2,4-dimethylpiperazin-1-yl]-6-methoxypyridin-2-yl]amino)pyrimidin-4-yl]benzonitrile hydrochloride]
< 100 nM	< 100 nM	COc1nc(Nc2cc(-c3ccc(OC4CCN(C(=O)[C@@H](C)O)CC4(F)F)c(C#N)c3)ncn2)ccc1N1CCN(C)C[C@H]1C (stereo partly drawn) [Example 66, 2-([3,3-difluoro-1-[(2R)-2-hydroxypropanoyl]piperidin-4-yl]oxy)-5-[6-([5-[(2R)-2,4-dimethylpiperazin-1-yl]-6-methoxypyridin-2-yl]amino)pyrimidin-4-yl]benzonitrile hydrochloride]
< 100 nM	< 100 nM	COc1nc(Nc2cc(-c3ccc(OC4CCNCC4(F)F)c(C#N)c3)ncn2)ccc1N1CCN(C2COC2)C[C@@H]1C (stereo partly drawn) [Example 67, 2-[(3,3-difluoropiperidin-4-yl)oxy]-5-[6-({6-methoxy-5-[(2S)-2-methyl-4-(oxetan-3-yl)piperazin-1-yl]pyridin-2-yl}amino)pyrimidin-4-yl]benzonitrile]
